# Measurements published in patent US6355619B1, “Peptide tumor cell growth inhibitors” (Board of Regents, The University of Texas System, priority 1996, dated 2002).
# Legend:
# [1] = target: T1, MIP-1α binding to human neutrophils (Homo sapiens, UniProt P32246); assay: Binding of radiolabeled MIP-1α to human neutrophils
# T1 construct: endogenous in cells; host or cells: human neutrophils
# [2] = test system: fMLP-stimulated neutrophil enzyme release; assay: β-glucuronidase release from neutrophils stimulated by fMLP; assay type: cell-based, human; conditions: 100 nM fMLP
# Procedure: FIG. 8. The Effect of Ac-RRWWCR-NH2 (SEQ ID NO:1) on β-glucuronidase Release. Neutrophils pretreated with cytochalasin B were incubated with 100 nM IL-8 (●), 100 nM fMLP (▪), 100 nM C5a (_) or 100 nM leukotriene B4 ? or without any stimulant (◯) in the presence of increasing concentration of Ac-RRWWCR-NH2 (SEQ ID NO:1) for 30 min at 37° C. β-glucuronidase activity of supernatants were measured using phenolphthalein-glucuronic acid as substrate. Analysis of variance was used for multiple comparison.
# Neutrophil enzyme release was studied by a modification of the method of Goldstein and colleagues (Goldstein et al., 1973). Cytochalasin B (Sigma Chemical Co.) was stored in dimethyl sulfoxide at a concentration of 5 mg/ml and was diluted to a concentration of 50 μg/ml in Hank's Balanced Salt Solution (HBSS) immediately before use. Cytochalasin B, 200 μl, was added to 1 ml of suspension of neutrophils, 6.25×10^6 cells/ml in HBSS, to achieve a final cytochalasin B concentration of […]. The solution was then incubated in 96 well plates at room temperature for 10 min. The stimulant, 100 μl, was added, and this cell suspension was incubated for 30 min at 37° C. The plates were centrifuged and 100 μl of supernatant was removed. […] After 16 hr incubation at 37° C., 200 μl of 0.2 M Glycine in 0.2 M NaCl, pH10.4 was added to each well and OD540 was measured as the enzyme activity.
# [3] = test system: MGSA/GROα receptors on Hs 294T melanoma cells; assay: Binding of 125I-MGSA/GROα to Hs 294T melanoma cells; design: species or system human; conditions: 1 nM 125I-labeled MGSA/GROα, read-out: EC50, inhibition of MGSA/GROα binding
# Procedure: (§1) FIG. 11A. The binding of ^125I-labeled MGSA/GROα to melanoma cell lines, Hs 294T and RPMI-7951. The melanoma cells, 1×10^5, were incubated with 1 nM ^125I-MGSA/GROα in the presence of various concentrations of unlabeled MGSA/GROα. Binding inhibition curve with Hs 294T (closed circles) and RPMI-7951 (open circles). The lines shown in the graph are the best fit curves calculated using the London II computer program.
# (§2) FIG. 13. The effect of Antileukinate on the binding of radiolabeled MGSA/GROα to the melanoma cell lines. The melanoma cells, Hs 294T (closed circles) and RPMI-7951 (open circles), were incubated with 1 nM ^125I-MGSA/GROα in the presence of different concentrations of Antileukinate. The lines shown in the graph are the best fit curves calculated using the London II computer program.
# (§3) Recombinant human MGSA/GROα and IL-8 were purchased form Pepro Tech Inc. (Rocky Hill, N.J.) and radioactively labeled using ^125I-labeled Bolton-Hunter reagent (DuPont-NEN, Wilmington, Del.) (Bolton and Hunter, 1973). The labeled proteins were isolated using Sephadex G-25 column (Column PD-10, Pharmacia) pre-equilibrated with PBS containing 0.1% gelatin and stored at −70° C. after the addition of 1% bovine serum albumin.
# (§4) Binding studies with melanoma cell lines were performed by the method of Horuk and colleagues (Horuk et al., 1993). Briefly, the cells (1×10^5 cells/well) in 24-well plates were washed two times with Hank's Balanced Salt Solution and incubated with ^125I-labeled MGSA/GROα or IL-8 in the buffer containing 1% bovine serum albumin at 4° C. for 3 hr. The incubation was terminated by vacuum aspiration of the supernatant. The cells were washed three times in binding buffer, solubilized by the addition of 200 μl of 1% SDS, and transferred to vials for counting. The non-specific binding was estimated by measuring the binding in the presence of 100-fold excess of non-labeled ligand. The binding parameters were calculated using the Lundon II computer program (Lundon Software Inc., Chagrin Falls, Ohio).
# [4] = test system: MGSA/GROα receptors on RPMI-7951 melanoma cells; assay: Binding of 125I-MGSA/GROα to RPMI-7951 melanoma cells; conditions: RPMI-7951, 1 nM 125I-labeled MGSA/GROα; read-out: EC50, inhibition of MGSA/GROα binding
# Procedure: as §1, §2, §3, §4
# [5] = test system: RPMI-7951 melanoma cells; assay: Cell growth assay, RPMI-7951; assay type: cell-based
# Procedure: FIG. 15B. The effect of Antileukinate on the growth of melanoma cells. Melanoma cell lines and a control liver cancer cell line (2×10^4 cells/well) in […] were cultured in a 24 well tissue culture plate in the presence of various concentrations of Antileukinate for 3 d. The culture media were changed to fresh media containing the same concentration of Antileukinate every 24 hr during the incubation period. After incubation, the cells were collected and the cell number was counted using a hemocytometer. RPMI-7951 cell line. Analysis of variance was used for multiple comparison.
# The cell lines (2×10^4 cells/well) in 500 μl cell culture medium were grown in 24 well tissue culture plates. After the cells adhered to the plate, the supernatants were aspirated and 500 μl of media containing various concentrations of Antileukinate were added to the wells. The cells were cultured for period indicated in the text. The culture media were changed to fresh media every 24 hr. After incubation, the cells were detached with trypsin-EDTA solution (Life Technologies Inc., Gaithersburg, Md., containing 0.05% of trypsin and 0.53 mM of EDTA in Hanks Balanced Salt Solution without Ca^2+ and Mg^2+) and the cell number was counted using a hemocytometer.
# [6] = Hs 294T culture, 100 μM peptide
# T1 sequence (P32246 whole entry): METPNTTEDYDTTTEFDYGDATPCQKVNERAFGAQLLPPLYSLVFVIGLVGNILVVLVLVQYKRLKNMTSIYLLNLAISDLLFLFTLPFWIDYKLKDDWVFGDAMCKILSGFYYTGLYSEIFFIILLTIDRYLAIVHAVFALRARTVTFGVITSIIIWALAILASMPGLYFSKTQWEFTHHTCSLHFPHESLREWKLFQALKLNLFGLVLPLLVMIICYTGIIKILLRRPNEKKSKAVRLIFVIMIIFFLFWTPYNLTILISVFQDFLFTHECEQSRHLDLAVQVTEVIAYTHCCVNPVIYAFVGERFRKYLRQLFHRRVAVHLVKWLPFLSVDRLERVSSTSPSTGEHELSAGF
substance,measurement,setting,value
RRWWCR [Ac-RRWWCR-NH2],effect on binding of radiolabeled MIP-1α,[1],did not affect the binding
same,effect on enzyme release stimulated by fMLP,[2],did not affect the enzyme release
same,EC50,[3],~1 µM
same,EC50,[4],~1 µM
same,cell growth at 100 μM peptide,"[5]; RPMI-7951, 100 μM",suppressed the cell growth almost completely
same,EC50,"[5]; RPMI-7951, 72 hr, medium changed every 24 hr, read-out: ED50, cell growth inhibition",31 µM
same,time within which the peptide is substantially eliminated from the culture,[6],≤ 24 h
same,decrease of the major radioactivity peak (intact peptide),[6]; after 24 hr,more than 85%
